The values that follow come from patent publication US9556201B2, “Bicyclic pyridines and analogs as sirtuin modulators” (GLAXOSMITHKLINE LLC, priority 2009, dated 2017).

One assay deals with TNF. Put plainly: TNF IC50 (column of Table 1; method not shown). It is filed as cell-based.
Another assay concerns the target T1, SIRT1 (Homo sapiens, UniProt Q96EB6).
T1 sequence (Q96EB6 1-747): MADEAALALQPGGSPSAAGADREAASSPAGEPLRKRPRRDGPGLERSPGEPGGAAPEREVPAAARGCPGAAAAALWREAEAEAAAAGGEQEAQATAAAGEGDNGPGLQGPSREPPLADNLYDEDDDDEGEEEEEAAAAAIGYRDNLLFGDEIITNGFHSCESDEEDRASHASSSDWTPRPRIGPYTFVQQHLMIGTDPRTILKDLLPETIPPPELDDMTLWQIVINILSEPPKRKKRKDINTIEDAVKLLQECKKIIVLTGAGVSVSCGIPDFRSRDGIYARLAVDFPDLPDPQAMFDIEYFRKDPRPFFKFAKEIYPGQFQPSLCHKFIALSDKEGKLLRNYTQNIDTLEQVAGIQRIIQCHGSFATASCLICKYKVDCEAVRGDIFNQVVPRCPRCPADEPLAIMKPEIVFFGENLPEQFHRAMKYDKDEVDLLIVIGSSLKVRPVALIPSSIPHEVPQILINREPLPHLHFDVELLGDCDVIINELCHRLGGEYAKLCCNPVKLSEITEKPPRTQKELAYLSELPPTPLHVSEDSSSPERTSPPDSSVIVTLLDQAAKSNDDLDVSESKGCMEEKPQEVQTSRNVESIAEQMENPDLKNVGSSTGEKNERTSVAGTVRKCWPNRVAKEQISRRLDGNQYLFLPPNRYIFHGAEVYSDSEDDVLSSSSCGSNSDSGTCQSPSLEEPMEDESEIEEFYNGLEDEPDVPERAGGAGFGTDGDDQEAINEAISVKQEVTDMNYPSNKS
Put plainly: Mass spectrometry based assay to identify modulators of SIRT1 activity (deacetylation of p53-based acetylated peptide substrate). The format is biochemical. To be noted: SIRT1 activation; for Emax: 25 min, read-out: % FOLD ACT. (percent maximum fold activation). In outline:
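His-tagged human SIRT1 (10 nM, E. coli) incubated 25 min at 25 °C with […] p53-derived acetylated 5TMR peptide and 120 μM βNAD+ in pH 8 Tris-acetate buffer, then formic acid-stopped. Mass spectrometry quantifies acetylated vs deacetylated peptide; nicotinamide and DMSO controls.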

Broadly, the IC50 is the concentration that inhibits the measured activity by half. A higher IC50 goes with weaker potency. On to `O=C(Nc1ccnc(N2CCC2)c1)N1CCCOc2ccc(-c3cccc(Cl)c3)nc21` [Compound 608], for which, in the assay with TNF, the IC50 was < 20 µM. In addition, at SIRT1, the Emax was > 200% and the EC1.5 entry is on record as “A (EC1.5<1.0 μM)”.
In the case of `O=C(Nc1ccnc(N2CCCC2)c1)N1CCCOc2ccc(-c3cccc(Cl)c3)nc21` [Compound 609], in the assay with TNF, the IC50 was < 20 µM. For the same molecule, on SIRT1, the Emax is > 200% and the EC1.5 entry was “A (EC1.5<1.0 μM)”.
Consider `O=C(Nc1ccnc(N2CCC2)c1)N1CCCOc2ccc(-c3cccc(N4CCCC4)c3)nc21` [Compound 611], for which, in the assay with TNF, the IC50 is < 20 µM. In addition, at SIRT1, the Emax was > 200% and the EC1.5 result was “A (EC1.5<1.0 μM)”.
Consider `O=C(Nc1ccnc(N2CCCC2)c1)N1CCCOc2ccc(-c3cccc(N4CCCC4)c3)nc21` [Compound 612], for which the IC50 in the assay on TNF is < 20 µM. On SIRT1, the Emax is > 200% and the EC1.5 result is given as “A (EC1.5<1.0 μM)”.
In the case of `Cc1cc(NC(=O)N2CCCOc3ccc(-c4cccc(Cl)c4)nc32)ccn1` [Compound 613], in the assay with TNF, the IC50 was < 20 µM. Further, on SIRT1, the Emax was > 200% and the EC1.5 entry was “A (EC1.5<1.0 μM)”.
As to `Cc1cc(NC(=O)N2CCCOc3ccc(-c4cccc(N5CCCC5)c4)nc32)ccn1` [Compound 614], the IC50 in the assay on TNF is ≥ 20 µM. Moreover, on SIRT1, the Emax was > 200% and the EC1.5 entry is “A (EC1.5<1.0 μM)”.
`Cc1cc(NC(=O)N2CCCOc3ccc(-c4cccc(N5CCCC5)c4)nc32)cc(C)n1` [Compound 615]: the half-inhibitory concentration (IC50) with TNF is < 20 µM. On SIRT1, the Emax was > 200% and the EC1.5 entry is on record as “A (EC1.5<1.0 μM)”.
As to `Cc1csc(NC(=O)N2CCCc3ccc(-c4cccc(Cl)c4)nc32)n1` [Compound 616], the IC50 with TNF is ≥ 20 µM. In addition, at SIRT1, the Emax is > 200% and the EC1.5 entry is given as “A (EC1.5<1.0 μM)”.
Turning to `O=C(Nc1ccnc(N2CCC2)c1)N1CCCc2ccc(-c3cccc(Cl)c3)nc21` [Compound 617], the IC50 in the assay on TNF was < 20 µM. Also, at SIRT1, the Emax is > 200% and the EC1.5 entry is on record as “A (EC1.5<1.0 μM)”.
With `Cc1cc(NC(=O)N2CCOc3ccc(-c4cccc(N5CCCC5)c4)nc32)cc(C)n1` [Compound 618], the IC50 in the assay on TNF was ≥ 20 µM. In addition, at SIRT1, the Emax is > 200% and the EC1.5 entry was “A (EC1.5<1.0 μM)”.
For `Cc1cc(NC(=O)N2CCOc3ccc(-c4cccc(N(C)C)c4)nc32)cc(C)n1` [Compound 619], in the assay with TNF, the 50% inhibitory concentration (IC50) was < 20 µM. Besides, at SIRT1, the Emax was > 200% and the EC1.5 result was “A (EC1.5<1.0 μM)”.
The corresponding values for `Cc1csc(NC(=O)N2CCCc3ccc(-c4cccc(F)c4)nc32)n1` [Compound 620] are < 20 µM, > 200% and “A (EC1.5<1.0 μM)”.
Consider `Cc1csc(NC(=O)N2CC(C)(C)Oc3ccc(-c4cccc(F)c4)nc32)n1` [Compound 622], for which the 50% inhibitory concentration (IC50) in the assay on TNF was ≥ 20 µM. Further, at SIRT1, the Emax was > 200% and the EC1.5 result is listed as “A (EC1.5<1.0 μM)”.
As to `CN(C)c1cccc(-c2ccc3c(n2)N(C(=O)Nc2cncc(F)c2)CC(C)(C)O3)c1` [Compound 623], the IC50 in the assay with TNF was ≥ 20 µM. In addition, at SIRT1, the Emax was > 200% and the EC1.5 result is “A (EC1.5<1.0 μM)”.
As to `Cc1csc(NC(=O)N2CC(C)(C)Oc3ccc(-c4cccc(N(C)C)c4)nc32)n1` [Compound 624], the concentration for half-maximal inhibition (IC50) with TNF is < 20 µM. In addition, on SIRT1, the Emax was > 200% and the EC1.5 entry is on record as “A (EC1.5<1.0 μM)”.
Regarding `Cc1cc(NC(=O)N2CCCOc3ccc(-c4cccc(Cl)c4)nc32)cc(C)n1` [Compound 626], the IC50 with TNF is < 20 µM. Besides, at SIRT1, the Emax was > 200% and the EC1.5 entry is reported as “A (EC1.5<1.0 μM)”.
For the molecule `Cc1cc(NC(=O)N2CCOc3ccc(-c4cccc(C#N)c4)nc32)cc(C)n1` [Compound 631], in the assay on TNF, the IC50 is ≥ 20 µM. Moreover, at SIRT1, the Emax is > 200% and the EC1.5 result is “A (EC1.5<1.0 μM)”.
For `O=C(Nc1cncc(OCC(O)CO)n1)N1CCCc2ccc(-c3cccc(C(F)(F)F)c3)nc21` (stereo not drawn) [Compound 638], in that order: < 20 µM, > 200% and “A (EC1.5<1.0 μM)”.
`O=C(Nc1ccnc(OCC(O)CO)n1)N1CCCc2ccc(-c3cccc(C(F)(F)F)c3)nc21` (stereo not drawn) [Compound 639]: the IC50 in the assay on TNF is < 20 µM. Also, on SIRT1, the Emax is > 200% and the EC1.5 result was “A (EC1.5<1.0 μM)”.
As to `Cc1cncc(NC(=O)N2CCOc3ccc(-c4cccc(N5CCCC5)c4)nc32)c1` [Compound 644], the half-inhibitory concentration (IC50) in the assay with TNF is < 20 µM. At SIRT1, the Emax is > 200% and the EC1.5 result is reported as “A (EC1.5<1.0 μM)”.
With `O=C(Nc1ccncc1)N1CCCc2ccc(-c3cccc(C(F)(F)F)c3)nc21` [Compound 645], the IC50 in the assay on TNF was < 20 µM. Further, on SIRT1, the Emax is > 200% and the EC1.5 result was “A (EC1.5<1.0 μM)”.
As for `O=C(Nc1ccccn1)N1CCCc2ccc(-c3cccc(C(F)(F)F)c3)nc21` [Compound 646], the concentration for half-maximal inhibition (IC50) in the assay on TNF is < 20 µM. Moreover, at SIRT1, the Emax is > 200% and the EC1.5 result was “A (EC1.5<1.0 μM)”.
For the molecule `Cc1cc(C)nc(NC(=O)N2CCCc3ccc(-c4cccc(C(F)(F)F)c4)nc32)c1` [Compound 647], in the assay with TNF, the IC50 was ≥ 20 µM. At SIRT1, the Emax was > 200% and the EC1.5 entry is “A (EC1.5<1.0 μM)”.
For `O=C(Nc1cccnc1)N1CCCc2ccc(-c3cccc(Cl)c3)nc21` [Compound 653], in that order: ≥ 20 µM, > 200% and “A (EC1.5<1.0 μM)”.
In the case of `Cc1cc(C)nc(NC(=O)N2CCCc3ccc(-c4cccc(Cl)c4)nc32)c1` [Compound 654], the IC50 in the assay with TNF was ≥ 20 µM. On SIRT1, the Emax is > 200% and the EC1.5 entry is “A (EC1.5<1.0 μM)”.
As to `Cc1cc(NC(=O)N2CC(C)(C)Oc3ccc(-c4cccc(N5CC[C@H](F)C5)c4)nc32)cc(C)n1` [Compound 658], in the assay on TNF, the 50% inhibitory concentration (IC50) was ≥ 20 µM. For the same molecule, at SIRT1, the Emax was > 200% and the EC1.5 entry is “A (EC1.5<1.0 μM)”.
Regarding `Cc1cc(NC(=O)N2CC(C)(C)Oc3ccc(-c4cccc(N5CCOCC5)c4)nc32)cc(C)n1` [Compound 659], the half-inhibitory concentration (IC50) in the assay with TNF is < 20 µM. Moreover, at SIRT1, the Emax is > 200% and the EC1.5 entry is “A (EC1.5<1.0 μM)”.
The corresponding values for `Cc1cncc(NC(=O)N2CC(C)(C)Oc3ccc(-c4cccc(N5CC[C@H](F)C5)c4)nc32)c1` [Compound 660, (S)-6-(3-(3-fluoropyrrolidin-1-yl)phenyl)-2,2-dimethyl-N-(5-methylpyridin-3-yl)-2H-pyrido[3,2-b][1,4]oxazine-4(3H)-carboxamide] are ≥ 20 µM, > 200% and “A (EC1.5<1.0 μM)”.
On to `CC1(C)CN(C(=O)Nc2cncc(F)c2)c2nc(-c3cccc(N4CC[C@H](F)C4)c3)ccc2O1` [Compound 661], for which the half-maximal inhibitory concentration (IC50) in the assay with TNF was ≥ 20 µM. Further, at SIRT1, the Emax was > 200% and the EC1.5 result is “A (EC1.5<1.0 μM)”.
For `Cc1cc(-c2cccc(C(F)(F)F)c2)nc2c1OCCN2C(=O)Nc1ccncc1` [Compound 662], the IC50 in the assay on TNF was < 20 µM. On SIRT1, the Emax is > 200% and the EC1.5 result was “A (EC1.5<1.0 μM)”.
Turning to `Cc1cc(-c2cccc(C(F)(F)F)c2)nc2c1OCCN2C(=O)Nc1ccncc1F` [Compound 663], in the assay with TNF, the IC50 is ≥ 20 µM. On SIRT1, the Emax was > 200% and the EC1.5 entry is reported as “A (EC1.5<1.0 μM)”.
For `Cc1cc(C)nc(NC(=O)N2CCCc3ccc(-c4cccc(F)c4)nc32)c1` [Compound 664], in that order: ≥ 20 µM, > 200% and “A (EC1.5<1.0 μM)”.
In the case of `Cc1csc(NC(=O)N2CCOc3c(C)cc(-c4cccc(C(F)(F)F)c4)nc32)n1` [Compound 668, 8-methyl-N-(4-methylthiazol-2-yl)-6-(3-(trifluoromethyl)phenyl)-2H-pyrido[3,2-b][1,4]oxazine-4(3H)-carboxamide], in the assay on TNF, the 50% inhibitory concentration (IC50) was ≥ 20 µM. Further, at SIRT1, the Emax was > 200% and the EC1.5 entry was “A (EC1.5<1.0 μM)”.
Consider `Cc1cc(-c2cccc(C(F)(F)F)c2)nc2c1OCCN2C(=O)Nc1ccncn1` [Compound 669], for which, in the assay with TNF, the IC50 was ≥ 20 µM. Moreover, at SIRT1, the Emax is > 200% and the EC1.5 result is “A (EC1.5<1.0 μM)”.
For `Cc1cncc(NC(=O)N2CCOc3c(C)cc(-c4cccc(C(F)(F)F)c4)nc32)c1` [Compound 670], in that order: ≥ 20 µM, > 200% and “A (EC1.5<1.0 μM)”.
For `Cc1cc(NC(=O)N2CCOc3c(C)cc(-c4cccc(C(F)(F)F)c4)nc32)cc(C)n1` [Compound 671], the IC50 in the assay on TNF is < 20 µM. On SIRT1, the Emax was > 200% and the EC1.5 result was “A (EC1.5<1.0 μM)”.
